Data taken from PMC4752462 (PLoS ONE, 2016).
Where “and” joins values, the source holds several entries; their conditions need not be identical. Equal values may be shown once.

What was measured:
human recombinant CYP3A4 = biological target: T1, human recombinant CYP3A4 (Homo sapiens, UniProt P08684); assay: CYP3A4 inhibition, Vivid CYP450 blue screening kit with baculosomes; assay type: biochemical; details: for CYP3A4 activity (Fig 5 data): control = 100
T1 construct: purchased Life Technologies P2858; host or cells: baculosomes (baculovirus-infected insect cell microsomes)
T1 sequence (P08684 whole entry): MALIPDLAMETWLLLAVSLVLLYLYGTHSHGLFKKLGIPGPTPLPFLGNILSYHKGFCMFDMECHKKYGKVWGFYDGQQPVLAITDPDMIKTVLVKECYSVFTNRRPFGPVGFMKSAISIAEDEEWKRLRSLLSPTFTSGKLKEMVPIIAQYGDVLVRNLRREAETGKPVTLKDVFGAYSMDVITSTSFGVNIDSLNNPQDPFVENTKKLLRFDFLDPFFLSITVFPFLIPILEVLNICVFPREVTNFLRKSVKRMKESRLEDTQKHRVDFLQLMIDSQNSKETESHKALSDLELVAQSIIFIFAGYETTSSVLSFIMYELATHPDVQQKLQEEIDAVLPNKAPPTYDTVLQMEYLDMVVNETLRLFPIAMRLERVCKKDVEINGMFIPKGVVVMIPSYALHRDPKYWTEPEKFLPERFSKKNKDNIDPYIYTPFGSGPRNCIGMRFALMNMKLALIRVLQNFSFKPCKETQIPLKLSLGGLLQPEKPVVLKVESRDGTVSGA
Experimental: CYP3A4 inhibition assay was carried out by using Vivid® CYP450 Screening Kit from Life Technologies as recommended by the manufacturer (# P2858, Carlsbad, CA). This assay allows rapid measurement of interactions between drugs of interest and CYP enzymes based on their capability to inhibit the production of a fluorescent signal in reactions using CYP BACULOSOMES® Plus Reagents and specific Vivid® Substrates. Briefly, the assay was conducted in a 96-well assay plate. […] The final concentrations of 2.5, 5, 7.5, 10, 25, 50, 75, and 100 μM were achieved by diluting the stocks in 1X Vivid® CYP reaction buffer. […] For ethanol only experiment, 2.5, 5, […], 20, 30, and 50 mM final concentrations were used. The final concentration of acetonitrile in each reaction was 0.01% in 100 μl final reaction volume. The fluorescence was immediately measured using a microplate reader (Cytation™ 5 Cell Imaging Multi-Mode Reader, BioTek, VT) at the 415/460 nm excitation and emission wavelengths.
The concentrations of all the drugs were quantified using Ab Sciex Analyst® software. Microsomal kinetic data were analyzed using Michaelis-Menten and exponential decay equations. CYP3A4 inhibition data were evaluated by fitting the values to dose-response inhibition and calculated IC50 values were reported. All graphs were plotted and two-tailed t-tests were performed wherever appropriate using GraphPad Prism 5.01 (GraphPad, San Diego, CA). Significant differences between more than two groups analyzed with one-way ANOVA followed by Dunnett’s multiple comparison tests using IBM SPSS […] version 20. A p value <0.05 was considered significant compared to respective controls. The original data and/or statistical analyses for Michaelis-Menten Kinetics, drug metabolism and half-life determination, inhibition studies, and ligand docking are provided in the supporting information (S1 file).

[1] = plasma pharmacokinetics; cited from earlier work
in vitro = in vitro ADME, human; details: human, microsomes
Experimental: (§1) The reaction was carried out using human liver microsomes in 0.1 M potassium phosphate buffer at pH 7.4 as described previously. […] After pre-incubation at 37°C for 10 minutes, 3 mM final concentration of NADPH was added to initiate the metabolic reaction. After 7 minutes incubation at 37°C the reactions were terminated by adding 1:3 volumes of cold acetonitrile. For the time kinetic study, the reaction was terminated at various time points (0.0, 2.5, 5, 10, 15, 20, 30, and 60 minutes). […] The Prior to LCMS/MS analysis the analyte was extracted from the microsomes by a protein precipitation method as described previously. The concentrations of all the drugs were quantified using Ab Sciex Analyst® software. Microsomal kinetic data were analyzed using Michaelis-Menten and exponential decay equations. CYP3A4 inhibition data were evaluated by fitting the values to dose-response inhibition and calculated IC50 values were reported. All graphs were plotted and two-tailed t-tests were performed wherever appropriate using GraphPad Prism 5.01 (GraphPad, San Diego, CA). Significant differences between more than two groups analyzed with one-way ANOVA followed by Dunnett's multiple comparison tests using IBM […] version 20. […] To study the influence of alcohol consumption on EVG metabolism, 20 mM ethanol (physiological concentration in moderate drinker) was used to treat human liver microsomes. […] EVG degradation/metabolism at 4 μM followed a pseudo-first-order kinetic. Therefore, we fit the data to an exponential one phase decay equation to determine the apparent half-life (t1/2) and rate constant K.

human liver microsomes [2] = assay: in vitro; assay type: in vitro ADME; details: for EVG remaining: human, microsomes, 4 μM, pH 7.4
Experimental: as §1

[3] = Substrate (saturation) kinetics of EVG metabolism in human liver microsomes; assay type: in vitro ADME; details: human
Experimental: (§2) The reaction was carried out using human liver microsomes in 0.1 M potassium phosphate buffer at pH 7.4 as described previously. […] After pre-incubation at 37°C for 10 minutes, 3 mM final concentration of NADPH was added to initiate the metabolic reaction. After 7 minutes incubation at 37°C the reactions were terminated by adding 1:3 volumes of cold acetonitrile. For the time kinetic study, the reaction was terminated at various time points (0.0, 2.5, 5, 10, 15, 20, 30, and 60 minutes). […] The Prior to LCMS/MS analysis the analyte was extracted from the microsomes by a protein precipitation method as described previously. The concentrations of all the drugs were quantified using Ab Sciex Analyst® software. Microsomal kinetic data were analyzed using Michaelis-Menten and exponential decay equations. CYP3A4 inhibition data were evaluated by fitting the values to dose-response inhibition and calculated IC50 values were reported. All graphs were plotted and two-tailed t-tests were performed wherever appropriate using GraphPad Prism 5.01 (GraphPad, San Diego, CA). Significant differences between more than two groups analyzed with one-way ANOVA followed by Dunnett's multiple comparison tests using IBM […] version 20.

human liver microsomes [4] = assay: as above; assay type: in vitro ADME
Experimental: as §2

[5] = With Ethanol, three values per group
[6] = three values per group used for statistics

COc1cc2c(cc1Cc1cccc(Cl)c1F)c(=O)c(C(=O)O)cn2[C@H](CO)C(C)C [EVG, Elvitegravir]
CYP3A4 activity (Fig 5 data) (human recombinant CYP3A4; EVG 2.5 uM): 77.957 | CYP3A4 activity (Fig 5 data) (human recombinant CYP3A4; EVG 5 uM): 63.9794 | CYP3A4 activity (Fig 5 data) (human recombinant CYP3A4; EVG 7.5 uM): 59.992 | CYP3A4 activity (Fig 5 data) (human recombinant CYP3A4; EVG 10 uM): 55.6409 | CYP3A4 activity (Fig 5 data) (human recombinant CYP3A4; EVG 25 uM): 40.6332 | CYP3A4 activity (Fig 5 data) (human recombinant CYP3A4; EVG 50 uM): 32.8987 | CYP3A4 activity (Fig 5 data) (human recombinant CYP3A4; EVG 75 uM): 28.0321 | CYP3A4 activity (Fig 5 data) (human recombinant CYP3A4; EVG 100 uM): 18.7817 | IC50 (human recombinant CYP3A4; EVG with ethanol at 20 mM): 17.5 ± 1.5 µM | IC50 (human recombinant CYP3A4; EtOH 20 mM, COBI at concentration matching EVG unless 0.04 μM stated): 13 µM and 13.1 µM | IC50 (human recombinant CYP3A4; [5]): 19 µM and 16.5 µM | increase in the IC50 by ethanol (human recombinant CYP3A4; ethanol at 20 mM compared to EVG alone): 34% | plasma half-life [1]: 120 to 180 min | half-life at 4 μM (in vitro; pH 7.4, Half-life): 12.1 min | half-life at 4 μM (in vitro; pH 7.4, Half-life (minutes)): 17 ± 1 min | Rate Constant 'K' (human liver microsomes [2]; [5]): 0.05 | EVG remaining (human liver microsomes [2]; 0 h): 100 % of control | EVG remaining (human liver microsomes [2]; 2.5 min): 96.6 % of control | EVG remaining (human liver microsomes [2]; 5 min): 93.5 % of control | EVG remaining (human liver microsomes [2]; 10 min): 77.8 % of control | EVG remaining (human liver microsomes [2]; 0.25 h): 63.6 % of control | EVG remaining (human liver microsomes [2]; 20 min): 45.2 % of control | EVG remaining (human liver microsomes [2]; 0.5 h): 30.4 % of control | EVG remaining (human liver microsomes [2]; 1 h): 14.2 % of control | Km at 7 min ([3]; pH 7.4, EVG 4-200 μM, COBI at same ratio, EtOH 20 mM): 68 ± 17 µM | Km at 7 min ([3]; pH 7.4, in the presence of ethanol): 115 ± 18 µM | Km at 7 min ([3]; pH 7.4, three values per group used for statistics): 68.3 µM | Km at 7 min ([3]; pH 7.4, when COBI is present): 189 ± 46 µM | enzyme activity (Fig 4 data) (human liver microsomes [4]; EVG 4): 3.7 μmol/min/mg protein | enzyme activity (Fig 4 data) (human liver microsomes [4]; EVG 8): 7.7 μmol/min/mg protein | enzyme activity (Fig 4 data) (human liver microsomes [4]; EVG 20): 19.5 μmol/min/mg protein | enzyme activity (Fig 4 data) (human liver microsomes [4]; EVG 40): 38.6 μmol/min/mg protein | enzyme activity (Fig 4 data) (human liver microsomes [4]; EVG 60): 55.9 μmol/min/mg protein | enzyme activity (Fig 4 data) (human liver microsomes [4]; EVG 80): 68.9 μmol/min/mg protein | enzyme activity (Fig 4 data) (human liver microsomes [4]; EVG 100): 74.7 μmol/min/mg protein | enzyme activity (Fig 4 data) (human liver microsomes [4]; EVG 120): 71.9 μmol/min/mg protein | enzyme activity (Fig 4 data) (human liver microsomes [4]; EVG 160): 70.9 μmol/min/mg protein | enzyme activity (Fig 4 data) (human liver microsomes [4]; EVG 200): 84.3 μmol/min/mg protein | Vmax (human liver microsomes [4]; EVG alone): 162 ± 16 μmol/min/mg protein | Vmax (human liver microsomes [4]; in the presence of ethanol): 221 ± 18 μmol/min/mg protein | Km (human liver microsomes [4]; [6]): 65.2 µM and 68.7 µM | Vmax (human liver microsomes [4]; [6]): 162.1 and 157.8 and 158.3 | Vmax (human liver microsomes [4]; when COBI is present): 308 ± 45 μmol/min/mg protein
